Results as given in patent US20080275134A1, “Methods for Treatment of Retinal Degenerative Disease” (University of Washington, priority 2005, published 2008).
Each block holds one molecule with its values, some of them ahead of it.

How the values were obtained:
isomerase = target: T1, isomerase (Bos taurus, UniProt Q28175); experiment: isomerase reaction: 11-cis-retinol production by RPE microsomes from all-trans-retinol; format: biochemical, bovine; conditions: for IC50 / inhibition of isomerization (in words): RPE microsomes; for IC50: all-trans-retinol substrate, read-out: IC50, inhibition of 11-cis-retinol production; for inhibition of isomerization (in words): in vitro; for lowering of potency by saturation of the C13-14 double bond: relative to the 11-cis- and all-trans-isomers of Ret-NH2
T1 construct: Purified RPE microsomes were the source of the enzymes; from tissue; host or cells: bovine retinal pigment epithelium microsomes
T1 sequence (Q28175 2-533 limits assumed): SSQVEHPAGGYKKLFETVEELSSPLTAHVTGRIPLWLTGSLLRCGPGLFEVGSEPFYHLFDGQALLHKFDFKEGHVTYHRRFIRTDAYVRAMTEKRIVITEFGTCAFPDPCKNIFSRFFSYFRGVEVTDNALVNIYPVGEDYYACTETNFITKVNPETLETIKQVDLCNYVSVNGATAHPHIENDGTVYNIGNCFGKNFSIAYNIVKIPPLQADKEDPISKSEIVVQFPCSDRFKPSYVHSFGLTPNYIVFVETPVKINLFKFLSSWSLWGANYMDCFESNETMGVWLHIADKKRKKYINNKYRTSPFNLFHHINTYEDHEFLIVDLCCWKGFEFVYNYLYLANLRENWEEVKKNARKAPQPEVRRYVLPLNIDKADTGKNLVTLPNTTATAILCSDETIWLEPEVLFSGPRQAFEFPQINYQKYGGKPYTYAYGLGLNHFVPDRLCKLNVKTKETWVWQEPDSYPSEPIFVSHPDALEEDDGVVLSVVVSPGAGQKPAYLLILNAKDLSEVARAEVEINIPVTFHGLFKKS
Method: (§1) To test if 11-cis-retinylamine (11-cis Ret-NH2) affects isomerization and esterification, an in vitro assay was employed. In this assay both of the all-trans-retinyl esters formed in the reaction catalyzed by LRAT and 11-cis-retinol production by isomerase were measured (6). Purified RPE microsomes were the source of the enzymes, and all-trans-retinol was the substrate. […] Inhibition of isomerization by Ret-NH2 is not due to binding of CRALBP or competition with 11-cis-retinol for binding to CRALBP. […] An increased concentration of all-trans-retinol lowered the level of inhibition, as illustrated in FIG. 2B. […] Dixon's and Lineweaver-Burk plots in the standard assay conditions yielded Ki=0.1 μM for Ret-NH2 when all-trans-retinol (KM=0.3 μM) was assumed to be a substrate. […] This estimated value reflects the very potent nature of the inhibition by 11-cis-Ret-NH2.
Materials—Fresh bovine eyes were obtained from a local slaughterhouse (Schenk Packing Co., Inc., Stanwood, Wash.). Preparation of bovine RPE microsomes was performed according to previously described methods (Stecher et al., J Biol Chem 274:8577-85, 1999). All chemicals were purchased from Sigma-Aldrich (St. Louis, Mo.). 11-cis-Retinal was obtained from Dr. Rosalie Crouch (Charleston, S.C.).
Reaction conditions for isomerase and LRAT reaction—The isomerase reaction was performed essentially as described previously (Stecher et al., J Biol Chem 274:8577-85, 1999). The reaction was carried out in 10 mM BTP buffer, pH 7.5, 1% BSA, containing 1 mM ATP and 6 μM apo-CRALBP. To investigate inhibition properties of Ret-NH2 and its derivatives, RPE microsomes were preincubated for 5 min in 37° C. with the indicated compound in 10 mM BTP buffer, pH 7.5, 1% BSA, 1 mM ATP prior to addition of apo-CRALBP and all-trans-retinol. Ret-NH2 and its derivatives were delivered to the reaction mixture in 1 μl of DMF, and the same volume of DMF was added to the control reaction. Each experiment was performed three times in duplicate. The average values were used and the standard deviations were calculated.

CRALBP = CRALBP (Homo sapiens, UniProt P12271); experiment: analysis of retinoids bound to CRALBP isolated from the reaction mixture; format: binding
LRAT = target: T2, LRAT (Bos taurus, UniProt Q9BGL2); experiment: LRAT reaction: formation of all-trans-retinyl esters by RPE microsomes; format: biochemical, bovine; conditions: all-trans-retinol substrate
T2 construct: Purified RPE microsomes were the source of the enzymes; from tissue; host or cells: bovine retinal pigment epithelium microsomes
T2 sequence (Q9BGL2 1-230): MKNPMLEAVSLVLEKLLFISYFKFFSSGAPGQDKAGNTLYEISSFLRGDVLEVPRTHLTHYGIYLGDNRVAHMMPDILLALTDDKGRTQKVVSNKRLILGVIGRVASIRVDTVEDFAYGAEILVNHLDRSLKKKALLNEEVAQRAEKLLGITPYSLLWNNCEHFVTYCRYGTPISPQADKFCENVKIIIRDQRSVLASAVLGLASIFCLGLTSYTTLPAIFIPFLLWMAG
Method: as §1
Materials—Fresh bovine eyes were obtained from a local slaughterhouse (Schenk Packing Co., Inc., Stanwood, Wash.). Preparation of bovine RPE microsomes was performed according to previously described methods (Stecher et al., J Biol Chem 274:8577-85, 1999). […]
Reaction conditions for isomerase and LRAT reaction—The isomerase reaction was performed essentially as described previously (Stecher et al., J Biol Chem 274:8577-85, 1999). […] The average values were used and the standard deviations were calculated.

[1] = test system: regeneration of vision chromophore (11-cis-retinal); experiment: regeneration of 11-cis-retinal in mouse eyes after gavage and light bleach, HPLC retinoid analysis; format: in vivo; conditions: gavage in vegetable oil, 16 hours dark, light stimulated, 5 hours dark
Method: Mice were gavaged with all-trains-Ret-NH2, exposed to intense light for 20 min, and then allowed to recover in the dark for 5 hours. The total amount of different forms of retinoids in all experiments was unchanged. […] For this experiment mice were treated with both 9-cis-retinol and all-trans-Ret-NH2, and bleached after 24 hours, and were allowed to recover for 5 hours in the dark. The presence of 9-cis-retinal was confirmed in treated animals (see peaks 4 and 4′ in FIG. 4A bottom panel, corresponding to syn- and anti-9-cis-retinal oximes, respectively). 11-cis-Retinal was not reduced and/or esterified after treatment with Ret-NH2. […] This supports the idea that Ret-NH2 is a specific inhibitor of the isomerization reaction.
A. Chromatographic separation of nonpolar retinoids from WT mouse eyes. Mice were gavaged with all-trans-Ret-NH2 24 hours prior to bleaching for 20 min at 150 cd·m^−2 W in the Ganzfeld chamber. Regeneration of 11-cis-retinal was allowed for 24 hours in the dark, and retinoids were extracted from the eye and separated by normal phase HPLC as described in Materials and Methods. The peaks were identified based on elution time and absorption spectra correspond to the following retinoids: 1, all-trans-retinyl esters; 2,2′, syn- and anti-11-cis-retinal oximes; 3, syn-all-trans-retinal oxime; 4,4′, syn- and anti-9-cis-retinal oximes; 5, all-trans-retinol. B. Changes of 11-cis-retinal oxime levels at increasing doses of all-trans-Ret-NH2 during 5 hours or 24 hours of dark adaptation. Square indicates the level of 11-cis-retinal oximes that was present in mice gavaged with vegetable oil without retinoids just after bleaching, and arrow indicates the increase of visual chromophore during 5 hours of dark adaptation. Triangles correspond to the level of 11-cis-retinal found in the mice gavaged with 50 mg/kg of 13-cis-RA. C and D. Single flash ERG responses of increasing intensity for all-trans-Ret-NH2 treated mice and control mice. Serial responses to increasing flash stimuli were obtained for all-trans-Ret-NH2 treated and control mice for selected intensities (C) and plotted as a function of a-wave and b-wave versus varying light intensities under dark-adapted conditions (D) before bleach and at 5 hours and 24 hours after bleach. The dark-adapted mice were bleached with intense constant illumination (150 cd·m^−2) for 20 min. […] SE bars are shown.
Chromatographic separation of nonpolar retinoids from WT mouse eyes. Mice were gavaged with 100 mg/kg of all-trans-Ret-NH2 24 hours prior to bleaching. Mice were next exposed to 500 cd m^−2 for 48 min bleaching in the Ganzfeld chamber. Regeneration of 11-cis-retinal was allowed for 24 hours in the dark, and retinoids were extracted from the eye and separated by normal phase HPLC as described in Materials and Methods. The peaks identified based on elution time and absorption spectra correspond to the following retinoids: 1, all-trans-retinyl esters; 2,2′, syn- and anti-1-cis-retinal oximes; 3,3′ syn- and anti-all-trans-retinal oximes; 4, all-trans-retinol.
Mice were gavaged with the solution of inhibitor in vegetable oil (control—non-treated, RPN—retinylpalmitamide, RAN—retinylacetamide, Ret—NH2-all-trans-retinylamine), kept in dark for 16 hours, then light stimulated and kept in dark for additional 5 hours before their eyes were analyzed.
Mouse retinoid extraction and analysis—Retinoid analysis was performed under dim red light as described previously (Maeda et al., J. Neurochem 85:944-956, 2003; Van Hooser et al., J Biol Chem 277:19173-82, 2002). Mice were gavaged with retinoids as described previously (Van Hooser et al., J Biol Chem 277:19173-82, 2002).

RPE protein(s) = experiment: gel filtration chromatography of DHPC-solubilized RPE microsome proteins with retinoid; format: binding, bovine; conditions: for gel filtration elution position (fractions): Superdex 200, native RPE extract, proteins elute in fractions 18-60
Method: The specificity of Ret-NH2 was further tested by biochemical assays. […] When the RPE microsomes were solubilized with DHPC, the isomerase activity decreased only slightly. Then [^3H]-Ret-NH2 was added to the RPE extract and loaded on a gel filtration column. Proteins were fractionated and eluted between fractions 18 and 60 (FIG. 3A), while the radioactivity was eluted in fractions 36-38. RPE65 was identified by immunoblotting in fractions 23-34 (FIG. 3B). The most abundant proteins in this fraction were identified by mass spectrometry and include glucose phosphate isomerase, D-glyceraldehyde-3-phosphate dehydrogenase, phosphoglycerate mutase, triose phosphate isomerase, enolase, annexin V, calbindin 2, and LRAT. Identification of less abundant proteins is in progress.
RPE microsomes were solubilized with 10 mM DHPC, incubated with 11,12-di[^3H]-all-trans-Ret-NH2 (1 μM), and loaded on a Superdex 200 column equilibrated with Tris/HCl buffer, pH 7.5, containing 4 mM DHPC. Proteins were eluted with a constant flow rate of 0.4 ml/min. The protein and radioactivity levels of 0.4 ml fractions were examined by SDS-PAGE and scintillation counting (A), and immunoblot with anti-RPE65 and anti-LRAT antibodies (B). The star indicates the fraction associated with maximum radioactivity.

Chain of CRALBP (P12271 whole entry, species assumed): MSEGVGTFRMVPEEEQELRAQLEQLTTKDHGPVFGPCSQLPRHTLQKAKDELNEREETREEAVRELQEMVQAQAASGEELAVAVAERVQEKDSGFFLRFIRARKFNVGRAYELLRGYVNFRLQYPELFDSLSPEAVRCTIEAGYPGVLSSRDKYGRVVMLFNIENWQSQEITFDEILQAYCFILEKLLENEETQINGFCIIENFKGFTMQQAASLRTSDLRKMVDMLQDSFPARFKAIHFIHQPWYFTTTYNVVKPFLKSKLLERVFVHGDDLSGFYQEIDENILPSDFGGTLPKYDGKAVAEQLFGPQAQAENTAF

- IC50 (isomerase): 0.64 µM
Compound: CC(C=CC1=C(C)CCCC1(C)C)=CC=CC(C)=CCN (single isomer, unassigned) [9-cis-Ret-NH2, 9-cis-retinylamine]

- binding to CRALBP (CRALBP): did not reveal any significant levels
- formation of all-trans-retinyl esters (LRAT activity) (LRAT): not affected
- IC50 (isomerase): 0.07 µM
- inhibition of isomerization (in words) (isomerase): most potent inhibitor
Compound: CC(C=CC1=C(C)CCCC1(C)C)=CC=CC(C)=CCN (single isomer, unassigned) [11-cis-Ret-NH2, 11-cis-retinylamine]

- IC50 (isomerase): 0.73 µM
Compound: CC(C=CC1=C(C)CCCC1(C)C)=CC=CC(C)=CCN (single isomer, unassigned) [13-cis-Ret-NH2, 13-cis-retinylamine]

- inhibition of isomerization (in words) (isomerase): did not inhibit isomerization
- inhibition of isomerization (in words) (isomerase; listed as N-palmitoylretinamide): non-inhibitory
Compound: CCCCCCCCCCCCCCCC(=O)NC/C=C(C)/C=C/C=C(C)/C=C/C1=C(C)CCCC1(C)C [N-Retinylpalmitamide]
- inhibition of regeneration of vision chromophore in mice by retinylamides [1]: potent inhibitors of regeneration in mice
- inhibition of regeneration of vision chromophore in mice by retinylamides ([1]; listed as RPN): same as free retinylamine

- inhibition of isomerization (in words) (isomerase): higher IC50
Compound: CC1=C(/C=C/C(C)=C/C=C/C(C)=C/CNO)C(C)(C)CCC1 [N-hydroxyretinylamine]

Compound: CC(=O)NC/C=C(C)/C=C/C=C(C)/C=C/C1=C(C)CCCC1(C)C [N-retinylacetamide]
- gel filtration elution position (fractions) (RPE protein(s)): eluted either in the void volume or with low molecular weight compounds
- inhibition of regeneration of vision chromophore in mice by retinylamides [1]: potent inhibitors of regeneration in mice
- inhibition of regeneration of vision chromophore in mice by retinylamides ([1]; listed as RAN): same as free retinylamine
- inhibition of isomerization (in words) (isomerase): weakly inhibit the isomerization reaction

- lowering of potency by saturation of the C13-14 double bond (isomerase): about 10 fold
Compound: CC(C=CC1=C(C)CCCC1(C)C)=CC=CC(C)CCN (centres unmarked) [VIII]

- lowering of potency by saturation of the C13-14 double bond (isomerase): about 10 fold
Compound: CC1=C(/C=C/C(C)=C/C=CC(C)CCN)C(C)(C)CCC1 (centres unmarked) [VII]

Compound: [3H]C(C=C(C)C=CC1=C(C)CCCC1(C)C)=C([3H])C(C)=CCN [[^3H]-Ret-NH2, 11,12-di[^3H]-all-trans-Ret-NH2]
- gel filtration elution position (fractions), heat-denaturated proteins (RPE protein(s); control with heat-denaturated proteins): 48-60

Compound: CC1=C(/C=C/C(C)=C/C=C/C(C)CCO)C(C)(C)CCC1 (stereo not drawn) [all-trans-13,14-dihydroretinol, reference compound]
- inhibition of isomerization (in words) (isomerase): neither all-trans-thioretinol nor all-trans-13,14-dihydroretinol influenced the isomerization

- Km (isomerase; all-trans-retinol assumed to be a substrate): 0.3 µM
Compound: CC1=C(/C=C/C(C)=C/C=C/C(C)=C/CO)C(C)(C)CCC1 [all-trans-retinol, reference compound]
- gel filtration elution position (fractions) (RPE protein(s)): eluted either in the void volume or with low molecular weight compounds
- inhibition of isomerization (in words) (isomerase): weakly inhibit the isomerization reaction

Compound: CC1=C(/C=C/C(C)=C/C=C/C(C)=C/CS)C(C)(C)CCC1 [all-trans-thioretinol, reference compound]
- inhibition of isomerization (in words) (isomerase): neither all-trans-thioretinol nor all-trans-13,14-dihydroretinol influenced the isomerization
